Source: US20240366770A1, “DEGRADATION OF BRUTON'S TYROSINE KINASE (BTK) BY CONJUGATION OF BTK INHIBITORS WITH E3 LIGASE LIGAND AND METHODS OF USE” (BeiGene Switzerland GmbH, priority 2021, published 2024)
Like-named read-outs stand apart in the source and are kept apart here.

Columns and labels:
[1] = target: T1, BTK (Homo sapiens, UniProt Q06187); test: BTK degradation in TMD-8 cells (HTRF assay); assay type: cell-based; conditions: 6 h treatment, IC50 (DC50) of BTK degradation
T1 construct: High control=Cell group with added DMSO and without compound, indicating microplate readings without BTK degradation; endogenous in cells; host or cells: TMD-8
T1 sequence (Q06187 whole entry): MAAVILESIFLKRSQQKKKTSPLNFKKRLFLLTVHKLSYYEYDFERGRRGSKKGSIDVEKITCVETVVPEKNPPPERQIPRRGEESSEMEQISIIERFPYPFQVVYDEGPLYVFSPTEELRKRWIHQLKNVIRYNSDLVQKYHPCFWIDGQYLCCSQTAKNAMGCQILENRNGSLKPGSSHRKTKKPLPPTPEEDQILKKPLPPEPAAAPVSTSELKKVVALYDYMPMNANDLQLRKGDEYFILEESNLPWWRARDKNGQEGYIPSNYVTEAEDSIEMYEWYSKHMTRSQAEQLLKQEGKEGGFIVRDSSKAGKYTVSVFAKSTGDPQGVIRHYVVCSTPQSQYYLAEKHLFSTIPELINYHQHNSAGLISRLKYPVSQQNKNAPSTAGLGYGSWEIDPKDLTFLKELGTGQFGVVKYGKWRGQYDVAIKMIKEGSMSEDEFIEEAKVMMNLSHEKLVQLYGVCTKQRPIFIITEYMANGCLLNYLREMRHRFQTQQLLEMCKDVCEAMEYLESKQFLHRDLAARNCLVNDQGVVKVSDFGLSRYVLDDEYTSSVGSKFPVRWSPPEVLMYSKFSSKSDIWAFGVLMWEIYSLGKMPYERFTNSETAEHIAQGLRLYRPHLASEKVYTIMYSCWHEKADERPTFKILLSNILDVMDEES
Experimental: (§1) TMD-8 cells were treated with compounds diluted in 0.2% DMSO, dilution was done according to the following protocol: (1) making 500× stock solution in DMSO from 1 mM by 6-fold dilution, total 8 doses were included; (2) making 2× solution in cell culture medium by transferring 0.5 μl 500× stock solution into 125 μl medium; (3) adding 15 μl of 2× solution to cells for incubation of 6 h.
After 6 h treatment, 10 μl 4× lysis buffer was added to each well; the plate was sealed and incubated for 30 min at room temperature on a plate shaker; Once the cells was lysed, 16 μL of cell lysate were transferred to a PE 384-well HTRF detection plate; 4 μL of pre-mixed HTRF antibodies were added to each well; the plate was covered with a plate sealer, and then spinned at 1000 rpm for 1 min, then incubated overnight at room temperature; the results were read on BMG PheraStar with HTRF protocol (337 nm-665 nm-620 nm).
The IC50 (DC50) value of a compound can be obtained by fitting the following equation
(§2) wherein, X and Y are known values, and IC50, Hillslope, Top and Bottom are the parameters obtained by fitting with software. Y is the inhibition percentage (calculated from the equation), X is the concentration of the compound; IC50 is the concentration of the compound when the 50% inhibition is reached. The smaller the IC50 value is, the stronger the inhibitory ability of the compound is. Vice versa, the higher the IC50 value is, the weaker the ability the inhibitory ability of the compound is; Hillslope represents the slope of the fitted curve, generally around 1 *; Bottom represents the minimum value of the curve obtained by data fitting, which is generally 0%±20%; Top represents the maximum value of the curve obtained by data fitting, which is generally 100%±20%. The experimental data were fitted by calculating and analyzing with Dotmatics data analysis software.

[2] = tested on: HEK-293 cells; test: HEK-293 cytotoxicity detection (CellTiter-Glo); assay type: cell-based; conditions: Homo sapiens
Experimental: as §1, with “HEK-293 cells” for “TMD-8 cells”, “from 5” for “from 1”, “by 4-fold” for “by 6-fold”, “0.5 ul” for “0.5 μl”, “adding 50” for “adding 15”, “of 72” for “of 6”
25 μl of the CellTiter-Glo®Reagent [(Promega) -Cat No. G7572] was added to each well in the 96-well plate. The contents were mixed for 2 minutes on an orbital shaker to induce cell lysis. The plate was then allowed to incubate at room temperature for 10 minutes to stabilize luminescent signal. Luminescence was recorded on BMG PheraStar with luminescence protocol.
The IC50 value of a compound can be obtained by fitting the following equation
as §2, with “Wherein,” for “wherein,”

[3] = HEK-293 cells, 72 h incubation, CellTiter-Glo luminescence, IC50 of cell proliferation inhibition, read-out: HEK293

Structure (SMILES) | DC50 [1] [nM] | IC50 [2, 3] [nM] | IC50 ([2]; HEK293, 72 h, read-out: HEK293 (nM)) [nM]
Cc1cc(-c2ncnc3[nH]c4cc(N5CCN(CC6CCN(c7ccc(N8CCC(=O)NC8=O)cc7)CC6)CC5)c(C)cc4c23)c(F)cc1[C@@H](C)NC(=O)c1noc(C(C)(C)C)n1 [Example 44, (R)-5-(tert-butyl)-N-(1-(4-(7-(4-((1-(4-(2,4-dioxotetrahydropyrimidin-1(2H)-yl)phenyl)piperidin-4-yl)methyl)piperazin-1-yl)-6-methyl-9H-pyrimido[4,5-b]indol-4-yl)-5-fluoro-2-methylphenyl)ethyl)-1,2,4-oxadiazole-3-carboxamide] | 1.38 | > 10000 | 
Cc1c([C@@H](C)NC(=O)c2noc(C(C)(C)C)n2)ccc(-c2ncnc3[nH]c4cc(N5CCN(Cc6ccc7c(c6)C6(CC6)C(=O)N7C6CCC(=O)NC6=O)CC5)ccc4c23)c1F (stereo partly drawn) [Example 79, 5-(tert-butyl)-N-((1R)-1-(4-(7-(4-((1′-(2,6-dioxopiperidin-3-yl)-2′-oxospiro[cyclopropane-1,3′-indolin]-5′-yl)methyl)piperazin-1-yl)-9H-pyrimido[4,5-b]indol-4-yl)-3-fluoro-2-methylphenyl)ethyl)-1,2,4-oxadiazole-3-carboxamide] | 15.9 | > 10000 | 
Cc1c([C@@H](C)NC(=O)c2noc(C(C)(C)C)n2)ccc(-c2ncnc3[nH]c4cc(N5CCN(CC6CCN(c7ccc(N8CCC(=O)NC8=O)cc7)CC6)CC5)ccc4c23)c1F [Example 27, (R)-5-(tert-butyl)-N-(1-(4-(7-(4-((1-(4-(2,4-dioxotetrahydropyrimidin-1(2H)-yl)phenyl)piperidin-4-yl)methyl)piperazin-1-yl)-9H-pyrimido[4,5-b]indol-4-yl)-3-fluoro-2-methylphenyl)ethyl)-1,2,4-oxadiazole-3-carboxamide] | 0.299 | > 10000 | 
Cc1cc(-c2ncnc3[nH]c4cc(N5CCN(CC6CCN(c7ccc(N8CCC(=O)NC8=O)cc7)CC6)CC5)ccc4c23)c(F)cc1[C@@H](C)NC(=O)c1nc(C(C)(C)C)no1 [Example 23, (R)-3-(tert-butyl)-N-(1-(4-(7-(4-((1-(4-(2,4-dioxotetrahydropyrimidin-1(2H)-yl)phenyl)piperidin-4-yl)methyl)piperazin-1-yl)-9H-pyrimido[4,5-b]indol-4-yl)-5-fluoro-2-methylphenyl)ethyl)-1,2,4-oxadiazole-5-carboxamide] | 0.608 | 2900 | 
Cc1cc(-c2ncnc3[nH]c4cc(C5CCN(CC6CCN(c7ccc(N8CCC(=O)NC8=O)cc7)CC6)C5)ccc4c23)ccc1[C@@H](C)NC(=O)c1nc(C(C)(C)C)no1 (stereo partly drawn) [Example 12, 3-(tert-butyl)-N-((1R)-1-(4-(7-(1-((1-(4-(2,4-dioxotetrahydropyrimidin-1(2H)-yl)phenyl)piperidin-4-yl)methyl)pyrrolidin-3-yl)-9H-pyrimido[4,5-b]indol-4-yl)-2-methylphenyl)ethyl)-1,2,4-oxadiazole-5-carboxamide] | 0.613 | 3640 | 
C[C@H]1CC[C@@H](NC(=O)c2nc(C(C)(C)C)no2)CN1c1ncnc2[nH]c3cc(N4CCN(CC5CCN(c6ccc(N7CCC(=O)NC7=O)cc6)CC5)CC4)ccc3c12 [Example 129, 3-(tert-butyl)-N-((3R,6S)-1-(7-(4-((1-(4-(2,4-dioxotetrahydropyrimidin-1(2H)-yl)phenyl)piperidin-4-yl)methyl)piperazin-1-yl)-9H-pyrimido[4,5-b]indol-4-yl)-6-methylpiperidin-3-yl)-1,2,4-oxadiazole-5-carboxamide] | > 2000 | 2040 | 
Cc1cc(-c2ncnc3[nH]c4cc([C@@H]5CCN(CC6CCN(c7ccc(N8CCC(=O)NC8=O)cc7)CC6)C5)ccc4c23)ccc1[C@@H](C)NC(=O)c1nc(C(C)(C)C)no1 [Example 13, 3-(tert-butyl)-N—((R)-1-(4-(7-((S)-1-((1-(4-(2,4-dioxotetrahydropyrimidin-1(2H)-yl)phenyl)piperidin-4-yl)methyl)pyrrolidin-3-yl)-9H-pyrimido[4,5-b]indol-4-yl)-2-methylphenyl)ethyl)-1,2,4-oxadiazole-5-carboxamide] | 1.05 | 3260 | 
Cc1c([C@@H](C)NC(=O)c2noc(C(C)(C)C)n2)ccc(-c2ncnc3[nH]c4cc(N5CCN(CC6CCN(Cc7ccc8c(c7)C(C)(C)C(=O)N8C7CCC(=O)NC7=O)CC6)CC5)ccc4c23)c1F (stereo partly drawn) [Example 98, 5-(tert-butyl)-N-((1R)-1-(4-(7-(4-((1-((1-(2,6-dioxopiperidin-3-yl)-3,3-dimethyl-2-oxoindolin-5-yl)methyl)piperidin-4-yl)methyl)piperazin-1-yl)-9H-pyrimido[4,5-b]indol-4-yl)-3-fluoro-2-methylphenyl)ethyl)-1,2,4-oxadiazole-3-carboxamide] | 1.97 | 7280 | 
Cc1cc(-c2ncnc3[nH]c4cc(N5CCN([C@H]6C[C@@H](c7ccc(N[C@@H]8CCC(=O)NC8=O)cc7)C6)CC5)ccc4c23)ccc1[C@@H](C)NC(=O)c1nc(C2(C)CC2)no1 [Example 118, N—((R)-1-(4-(7-(4-((1S,3s)-3-(4-(((R)-2,6-dioxopiperidin-3-yl)amino)phenyl)cyclobutyl)piperazin-1-yl)-9H-pyrimido[4,5-b]indol-4-yl)-2-methylphenyl)ethyl)-3-(1-methylcyclopropyl)-1,2,4-oxadiazole-5-carboxamide] | 1.73 | > 10000 | 
Cc1c([C@@H](C)NC(=O)c2noc(C(C)(C)C)n2)ccc(-c2ncnc3[nH]c4cc(N5CCN(Cc6cccc7c6C(C)(C)C(=O)N7C6CCC(=O)NC6=O)CC5)ccc4c23)c1F (stereo partly drawn) [Example 84, 5-(tert-butyl)-N-((1R)-1-(4-(7-(4-((1-(2,6-dioxopiperidin-3-yl)-3,3-dimethyl-2-oxoindolin-4-yl)methyl)piperazin-1-yl)-9H-pyrimido[4,5-b]indol-4-yl)-3-fluoro-2-methylphenyl)ethyl)-1,2,4-oxadiazole-3-carboxamide] | 8.15 | > 10000 | 
Cc1cc(-c2ncnc3[nH]c4cc(N5CCN(CCc6ccc7c(c6)C6(CC6)C(=O)N7C6CCC(=O)NC6=O)CC5)ccc4c23)ccc1[C@@H](C)NC(=O)c1nc(C2(C)CC2)no1 (stereo partly drawn) [Example 123, N-((1R)-1-(4-(7-(4-(2-(1′-(2,6-dioxopiperidin-3-yl)-2′-oxospiro[cyclopropane-1,3′-indolin]-5′-yl)ethyl)piperazin-1-yl)-9H-pyrimido[4,5-b]indol-4-yl)-2-methylphenyl)ethyl)-3-(1-methylcyclopropyl)-1,2,4-oxadiazole-5-carboxamide] | 0.192 |  | > 10000
Cc1cc(-c2ncnc3[nH]c4cc(N5CCN(CC6CCN(c7ccc(N8CCC(=O)NC8=O)cc7)CC6)CC5)ccc4c23)ccc1[C@@H](C)NC(=O)c1nc(C(C)(C)C)no1 [Example 6, (R)-3-(tert-butyl)-N-(1-(4-(7-(4-((1-(4-(2,4-dioxotetrahydropyrimidin-1(2H)-yl)phenyl)piperidin-4-yl)methyl)piperazin-1-yl)-9H-pyrimido[4,5-b]indol-4-yl)-2-methylphenyl)ethyl)-1,2,4-oxadiazole-5-carboxamide] | 0.394 | > 10000 | 
Cc1cc(-c2ncnc3[nH]c4cc(N5CCN([C@H]6C[C@H](c7ccc(N[C@H]8CCC(=O)NC8=O)cc7)C6)CC5)ccc4c23)ccc1[C@@H](C)NC(=O)c1nc(C2(C)CC2)no1 [Example 119, N—((R)-1-(4-(7-(4-((1S,3r)-3-(4-(((S)-2,6-dioxopiperidin-3-yl)amino)phenyl)cyclobutyl)piperazin-1-yl)-9H-pyrimido[4,5-b]indol-4-yl)-2-methylphenyl)ethyl)-3-(1-methylcyclopropyl)-1,2,4-oxadiazole-5-carboxamide] | 2.51 | > 10000 | 
